Experimental data published in patent US10266871B2, “Measurement method for thrombin production” (DAIICHI SANKYO COMPANY, LIMITED, priority 2012, dated 2019).
“Also recorded” adds a separate entry of the source.

Tests used:
[1] = tested on: thrombin generation in human PRP; test: Studies regarding measurement conditions: ADP alone on thrombin generation in human PRP; assay type: cell-based; conditions: ADP final concentration 5, 10 or 20 μM, no TF
[2] = tested on: thrombin generation in human PRP; conditions: Example 2; Edoxaban 40, 80 ng/mL; Ticagrelor 3 μg/mL; ADP 10 μM, TF 0.25 pM
Experimental: The obtained blood was centrifuged at room temperature at 150×g for 10 minutes, so that a supernatant was obtained as PRP. The residue obtained after separation of the PRP was centrifuged at room temperature at 2000×g for 10 minutes, so that a supernatant was obtained as platelet poor plasma (hereinafter also referred to as “PPP”). The PRP was diluted with the PPP, so that the number of platelets in the PRP could be 2×10^5 platelets/μL. The obtained PRP was left at 16° C. for 30 minutes or more, and it was then used for the measurement of thrombin generation.
10 μL of a 1% DMSO-containing saline was added to a 96-well plate, and 70 μL of the above obtained human PRP was then added thereto. […]
Five to seven minutes later, 20 μL of the heated FluCa-kit liquid (manufactured by Thrombinoscope BV) was added to the well, so that the reaction was initiated. Using a fluorophotometer (Fluoroskan Ascent, manufactured by Thermo Scientific), the fluorescence intensity at ex 390 nm/em 460 nm was measured at 37° C. for 150 minutes, and using Thrombinoscope software (manufactured by Thrombinoscope BV), Lag time (min), Time to Peak (min), ETP (nM×min), Peak (nM), and MaxR (nM/min) were calculated. […]
Subsequently, individual parameters were calculated in the same manner as that in the above “Studies regarding measurement conditions.” […]

Structure (SMILES) | Effect of ADP alone on thrombin generation [1] | Effect on thrombin generation, agent used alone compared to controls [2]
Nc1ncnc2c1ncn2[C@@H]1O[C@H](COP(=O)(O)OP(=O)(O)O)[C@@H](O)[C@H]1O [ADP, adenosine diphosphate] | provokes thrombin generation | –
CCCSc1nc(N[C@@H]2C[C@H]2c2ccc(F)c(F)c2)c2nnn([C@@H]3C[C@H](OCCO)[C@@H](O)[C@H]3O)c2n1 [Ticagrelor] | – | suppresses the generation of thrombin; also recorded: significantly suppresses thrombin generation, in terms of Peak, Time to Peak, and MaxR
